Source: patent publication US12077503B2, “Substituted cyclic amides and their use as herbicides” (FMC CORPORATION, priority 2015, dated 2024)

Assays:
Assay type in all cases: in vivo
[1] = system: velvetleaf (Abutilon theophrasti); experiment: Test G Post-Emergence Protocol; conditions: Abutilon theophrasti, post-emergence, 312 h; for pest or weed control at 15.625 g/ha: 15.625 g ai/ha, evaluated after 13 days (100=total damage to plant; 0=no damage to plant), read-out: Velvetleaf damage rating; for pest or weed control at 62.5 g/ha: 62.5 g ai/ha, read-out: Velvetleaf damage rating (100=total damage to plant; 0=no damage to plant); for pest or weed control at 62.5 g/ha / pest or weed control at 250 g/ha: evaluated after 13 days; for pest or weed control at 250 g/ha: 250 g ai/ha, read-out: damage to plant, Velvetleaf (100=total damage to plant; 0=no damage to plant)
Protocol: (§1) Seeds of corn (Zea mays), giant foxtail (Setaria faberi), barnyardgrass (Echinochloa crus-galli), ivy-leaved morning glory (Ipomoea hederacea), redroot pigweed (Amaranthus retroflexus) and velvetleaf (Abutilon theophrasti) were sown in standard soil in pots. After cultivation for 8 days under controlled conditions in a glasshouse (at 24/16° C., day/night; 14 hours light; 65% humidity), the plants were sprayed with an aqueous spray solution derived from the formulation of the technical active ingredient in acetone/water (50:50) solution containing 0.5% Tween 20 (polyoxyethylene sorbitan monolaurate, CAS RN 9005-64-5) to give a final dose of 15.625, 62.5 or 250 g/ha of test compound.
(§2) The test plants were then grown on under controlled conditions in a glasshouse (at 24/16° C., day/night; 14 hours light; 65% humidity) and watered twice daily. After 13 days the test was evaluated (100=total damage to plant; 0=no damage to plant). A dash (-) means no test result.

[2] = system: redroot pigweed (Amaranthus retroflexus); experiment: Test G Post-Emergence Protocol; conditions: Amaranthus retroflexus, post-emergence, 312 h; for pest or weed control at 15.625 g/ha: 15.625 g ai/ha, evaluated after 13 days (100=total damage to plant; 0=no damage to plant), read-out: Pigweed, Redroot damage rating; for pest or weed control at 62.5 g/ha: 62.5 g ai/ha, read-out: Pigweed, Redroot damage rating (100=total damage to plant; 0=no damage to plant); for pest or weed control at 62.5 g/ha / pest or weed control at 250 g/ha: evaluated after 13 days; for pest or weed control at 250 g/ha: 250 g ai/ha, read-out: damage to plant, Pigweed, Redroot (100=total damage to plant; 0=no damage to plant)
Protocol: as §1, §2

[3] = system: giant foxtail (Setaria faberi); experiment: Test G Post-Emergence Protocol; conditions: Setaria faberi, post-emergence, 312 h; for pest or weed control at 15.625 g/ha: 15.625 g ai/ha, evaluated after 13 days (100=total damage to plant; 0=no damage to plant), read-out: Foxtail, Giant damage rating; for pest or weed control at 62.5 g/ha: 62.5 g ai/ha, read-out: Foxtail, Giant damage rating (100=total damage to plant; 0=no damage to plant); for pest or weed control at 62.5 g/ha / pest or weed control at 250 g/ha: evaluated after 13 days; for pest or weed control at 250 g/ha: 250 g ai/ha, read-out: damage to plant, Foxtail, Giant (100=total damage to plant; 0=no damage to plant)
Protocol: as §1, §2

[4] = system: ivy-leaved morning glory (Ipomoea hederacea); experiment: Test G Post-Emergence Protocol; conditions: Ipomoea, post-emergence, 312 h; for pest or weed control at 15.625 g/ha: 15.625 g ai/ha, evaluated after 13 days (100=total damage to plant; 0=no damage to plant), read-out: Morningglory, Ivy-leaved damage rating; for pest or weed control at 62.5 g/ha: 62.5 g ai/ha, read-out: Morningglory, Ivy-leaved damage rating (100=total damage to plant; 0=no damage to plant); for pest or weed control at 62.5 g/ha / pest or weed control at 250 g/ha: evaluated after 13 days; for pest or weed control at 250 g/ha: 250 g ai/ha, read-out: damage to plant, Morningglory, Ivy-leaved (100=total damage to plant; 0=no damage to plant)
Protocol: as §1, §2

[5] = system: barnyardgrass (Echinochloa crus-galli); experiment: Test G Post-Emergence Protocol; conditions: Echinochloa crus-galli, post-emergence, 312 h; for pest or weed control at 15.625 g/ha: 15.625 g ai/ha, evaluated after 13 days (100=total damage to plant; 0=no damage to plant), read-out: Barnyardgrass damage rating; for pest or weed control at 62.5 g/ha: 62.5 g ai/ha, read-out: Barnyardgrass damage rating (100=total damage to plant; 0=no damage to plant); for pest or weed control at 62.5 g/ha / pest or weed control at 250 g/ha: evaluated after 13 days; for pest or weed control at 250 g/ha: 250 g ai/ha, read-out: damage to plant, Barnyardgrass (100=total damage to plant; 0=no damage to plant)
Protocol: as §1, §2

corn (Zea mays) [6] = experiment: Test G Post-Emergence Protocol; conditions: Zea mays, post-emergence, 312 h; for plant injury at 15.625 g/ha: 15.625 g ai/ha, evaluated after 13 days (100=total damage to plant; 0=no damage to plant), read-out: Corn damage rating; for plant injury at 62.5 g/ha: 62.5 g ai/ha, read-out: Corn damage rating (100=total damage to plant; 0=no damage to plant); for plant injury at 62.5 g/ha / plant injury at 250 g/ha: evaluated after 13 days; for plant injury at 250 g/ha: 250 g ai/ha, read-out: damage to plant, Corn (100=total damage to plant; 0=no damage to plant)
Protocol: as §1, §2

[7] = system: velvetleaf (Abutilon theophrasti); experiment: Test G Pre-Emergence Protocol; conditions: Abutilon theophrasti, pre-emergence, 312 h, evaluated after 13 days; for pest or weed control at 15.625 g/ha: 15.625 g ai/ha; for pest or weed control at 15.625 g/ha / pest or weed control at 250 g/ha: read-out: Velvetleaf damage rating (100=total damage to plant; 0=no damage to plant); for pest or weed control at 62.5 g/ha: 62.5 g ai/ha, 100=total damage to plant, 0=no damage to plant, read-out: plant damage rating, Velvetleaf; for pest or weed control at 250 g/ha: 250 g ai/ha
Outline: (§3)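 Test compound in 0.5% Tween 20 acetone/water (50:50) was applied at three rates (15.625, 62.5, 250 g/ha) to soil sown one day earlier. After 13 days plants were scored for injury, where 0 means unaffected and 100 means completely damaged.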

[8] = system: redroot pigweed (Amaranthus retroflexus); experiment: Test G Pre-Emergence Protocol; conditions: Amaranthus retroflexus, pre-emergence, 312 h, evaluated after 13 days; for pest or weed control at 15.625 g/ha: 15.625 g ai/ha; for pest or weed control at 15.625 g/ha / pest or weed control at 250 g/ha: read-out: Pigweed, Redroot damage rating (100=total damage to plant; 0=no damage to plant); for pest or weed control at 62.5 g/ha: 62.5 g ai/ha, 100=total damage to plant, 0=no damage to plant, read-out: plant damage rating, Pigweed, Redroot; for pest or weed control at 250 g/ha: 250 g ai/ha
Outline: as §3

[9] = system: giant foxtail (Setaria faberi); experiment: Test G Pre-Emergence Protocol; conditions: Setaria faberi, pre-emergence, 312 h, evaluated after 13 days; for pest or weed control at 15.625 g/ha: 15.625 g ai/ha; for pest or weed control at 15.625 g/ha / pest or weed control at 250 g/ha: read-out: Foxtail, Giant damage rating (100=total damage to plant; 0=no damage to plant); for pest or weed control at 62.5 g/ha: 62.5 g ai/ha, 100=total damage to plant, 0=no damage to plant, read-out: plant damage rating, Foxtail, Giant; for pest or weed control at 250 g/ha: 250 g ai/ha
Outline: as §3

[10] = system: ivy-leaved morning glory (Ipomoea hederacea); experiment: Test G Pre-Emergence Protocol; conditions: Ipomoea, pre-emergence, 312 h, evaluated after 13 days; for pest or weed control at 15.625 g/ha: 15.625 g ai/ha, read-out: Morning-glory, Ivy-leaved damage rating (100=total damage to plant; 0=no damage to plant); for pest or weed control at 62.5 g/ha: 62.5 g ai/ha, 100=total damage to plant, 0=no damage to plant, read-out: plant damage rating, Morningglory, Ivy-leaved; for pest or weed control at 250 g/ha: 250 g ai/ha, read-out: Morningglory, Ivy-leaved damage rating (100=total damage to plant; 0=no damage to plant)
Outline: as §3

[11] = system: barnyardgrass (Echinochloa crus-galli); experiment: Test G Pre-Emergence Protocol; conditions: Echinochloa crus-galli, pre-emergence, 312 h, evaluated after 13 days; for pest or weed control at 15.625 g/ha: 15.625 g ai/ha, read-out: Barnyard grass damage rating (100=total damage to plant; 0=no damage to plant); for pest or weed control at 62.5 g/ha: 62.5 g ai/ha, 100=total damage to plant, 0=no damage to plant, read-out: plant damage rating, Barnyardgrass; for pest or weed control at 250 g/ha: 250 g ai/ha, read-out: Barnyardgrass damage rating (100=total damage to plant; 0=no damage to plant)
Outline: as §3

corn (Zea mays) [12] = experiment: Test G Pre-Emergence Protocol; conditions: Zea mays, pre-emergence, 312 h, evaluated after 13 days; for plant injury at 15.625 g/ha: 15.625 g ai/ha; for plant injury at 15.625 g/ha / plant injury at 250 g/ha: read-out: Corn damage rating (100=total damage to plant; 0=no damage to plant); for plant injury at 62.5 g/ha: 62.5 g ai/ha, 100=total damage to plant, 0=no damage to plant, read-out: plant damage rating, Corn; for plant injury at 250 g/ha: 250 g ai/ha
Outline: as §3

Row | SMILES | pest or weed control at 15.625 g/ha [1] [%] | pest or weed control at 62.5 g/ha [1] [%] | pest or weed control at 250 g/ha [1] [%] | pest or weed control at 15.625 g/ha [2] [%] | pest or weed control at 62.5 g/ha [2] [%] | pest or weed control at 250 g/ha [2] [%] | pest or weed control at 15.625 g/ha [3] [%] | pest or weed control at 62.5 g/ha [3] [%] | pest or weed control at 250 g/ha [3] [%] | pest or weed control at 15.625 g/ha [4] [%] | pest or weed control at 62.5 g/ha [4] [%] | pest or weed control at 250 g/ha [4] [%] | pest or weed control at 15.625 g/ha [5] [%] | pest or weed control at 62.5 g/ha [5] [%] | pest or weed control at 250 g/ha [5] [%] | plant injury at 15.625 g/ha (corn (Zea mays) [6]) [%] | plant injury at 62.5 g/ha (corn (Zea mays) [6]) [%] | plant injury at 250 g/ha (corn (Zea mays) [6]) [%] | pest or weed control at 15.625 g/ha [7] [%] | pest or weed control at 62.5 g/ha [7] [%] | also measured
1 | CN1C[C@@H](c2ccc(C(F)(F)F)cc2)[C@@](O)(C(=O)Nc2cccc(F)c2F)C1=O (racemic) [Compound 1403] | 0 | 0 | 0 | 10 | 10 | 10 | 0 | 0 | 0 | 0 | 0 | 0 | 0 | 0 | 10 | 10 | 10 | 20 | 0 | 0 | pest or weed control at 250 g/ha [7]: 0%; pest or weed control at 15.625 g/ha [8]: 0%; pest or weed control at 62.5 g/ha [8]: 0%; pest or weed control at 250 g/ha [8]: 0%; pest or weed control at 15.625 g/ha [9]: 0%; pest or weed control at 62.5 g/ha [9]: 0%; pest or weed control at 250 g/ha [9]: 0%; pest or weed control at 15.625 g/ha [10]: 0%; pest or weed control at 62.5 g/ha [10]: 0%; pest or weed control at 250 g/ha [10]: 0%; pest or weed control at 15.625 g/ha [11]: 0%; pest or weed control at 62.5 g/ha [11]: 0%; pest or weed control at 250 g/ha [11]: 0%; plant injury at 15.625 g/ha (corn (Zea mays) [12]): 0%; plant injury at 62.5 g/ha (corn (Zea mays) [12]): 0%; plant injury at 250 g/ha (corn (Zea mays) [12]): 0%
2 | CN1C[C@@H](c2ccc(C(F)(F)F)cc2)[C@H](C(=O)Nc2cc(C(F)(F)F)n(C)n2)C1=O (racemic) [Compound 1512] | 0 | 0 | 0 | 0 | 0 | 0 | 0 | 0 | 0 | 0 | 0 | 0 | 0 | 0 | 0 | 0 | 0 | 0 | 0 | 0 | pest or weed control at 250 g/ha [7]: 0%; pest or weed control at 15.625 g/ha [8]: 0%; pest or weed control at 62.5 g/ha [8]: 0%; pest or weed control at 250 g/ha [8]: 0%; pest or weed control at 15.625 g/ha [9]: 0%; pest or weed control at 62.5 g/ha [9]: 0%; pest or weed control at 250 g/ha [9]: 0%; pest or weed control at 15.625 g/ha [10]: 0%; pest or weed control at 62.5 g/ha [10]: 0%; pest or weed control at 250 g/ha [10]: 0%; pest or weed control at 15.625 g/ha [11]: 0%; pest or weed control at 62.5 g/ha [11]: 0%; pest or weed control at 250 g/ha [11]: 0%; plant injury at 15.625 g/ha (corn (Zea mays) [12]): 0%; plant injury at 62.5 g/ha (corn (Zea mays) [12]): 0%; plant injury at 250 g/ha (corn (Zea mays) [12]): 0%
